The species named for this assay is Rattus norvegicus. Nature of the assay: Inhibition of rat microsomal SOAT assessed as reduction in cholesteryl oleate formation from oleoyl co-enzyme A at 10 uM pretreated for 15 mins followed by oleoyl co-enzyme A addition measured after 10 mins by HPTLC method relative to control.

Molecules are shown by their SMILES.

For `COc1ccc(-c2nc(NC(=O)Nc3ccc(F)cc3F)sc2-c2ccc(Cl)cc2)cc1`, the inhibition amounted to 2.98%. The same measure for `O=C(Nc1nc(-c2ccccc2)c(-c2ccccc2)s1)Nc1ccc(F)cc1F`: 3.03%. The same measure for `O=C(Nc1ccc(-c2nonc2-c2ccc(F)cc2)cc1)Nc1ccc(F)cc1F`: 47.1%; for `CCCCCCCCCCCCNC(=O)Nc1ccc(-c2sc(C)nc2-c2ccc(OC)cc2)cc1`: 27.5%; for `CCc1cccc(CC)c1NC(=O)Nc1ccc(-c2nonc2-c2ccc(C)cc2)cc1`: 0.34%. The same measure for `CCCCCCCNC(=O)Nc1ccc(-c2sc(C)nc2-c2ccc(OC)cc2)cc1`: 22.2%; for `CCCCCCCNC(=O)Nc1ccc(-c2nonc2-c2ccc(C)cc2)cc1`: 18.6%. In the case of `CCCCCCCCCCCCNC(=O)Nc1ccc(-c2sc(C)nc2-c2ccc(Cl)cc2)cc1`, the inhibition amounted to 5.75%. Then `CCCCCCCNC(=O)Nc1ccc(-c2nonc2-c2ccc(F)cc2)cc1`, with 30.9%; and `CCCCNC(=O)Nc1nc(-c2ccc(C)cc2)c(-c2ccc([N+](=O)[O-])cc2)s1`, with 3.86%; and `CCCCNC(=O)Nc1nc(-c2ccc(OC)cc2)c(-c2ccc(NC(C)C)cc2)s1`, with 4.67%. The same measure for `CCCCCCCCCCCCNC(=O)Nc1nc(-c2ccc(Cl)cc2)c(-c2ccc([N+](=O)[O-])cc2)s1`: 1.77%; for `Cc1ccc(-c2nc(NC(=O)Nc3ccc(F)cc3F)sc2-c2ccc(Cl)cc2)cc1`: 3.93%; for `CCCCNC(=O)Nc1nc(-c2ccc(F)cc2)c(-c2ccc([N+](=O)[O-])cc2)s1`: 2.98%.

In the case of `CCCCNC(=O)Nc1nc(-c2ccc(C)cc2)c(-c2ccc(NS(C)(=O)=O)cc2)s1`, the inhibition was determined as 32.7%. Then `CCCCNC(=O)Nc1nc(-c2ccc(F)cc2)c(-c2ccc(NS(C)(=O)=O)cc2)s1`, with 0.43%. The same measure for `CCCCNC(=O)Nc1nc(-c2ccc(OC)cc2)c(-c2ccc(NS(C)(=O)=O)cc2)s1`: 5.45%; for `CCCCNC(=O)Nc1nc(-c2ccc(OC)cc2)c(-c2ccc([N+](=O)[O-])cc2)s1`: 3.12%. The same measure for `CCc1cccc(CC)c1NC(=O)Nc1ccc(-c2nonc2-c2ccc(Cl)cc2)cc1`: 8.25%; for `COc1cc(NC(=O)Nc2ccc(-c3sc(C)nc3-c3ccc(Cl)cc3)cc2)cc(OC)c1OC`: 24.4%. As to `CCCCNC(=O)Nc1nc(-c2ccc(Cl)cc2)c(-c2ccc(NS(C)(=O)=O)cc2)s1`, the inhibition was determined as 5.63%. Then `COc1ccc(-c2nc(C)sc2-c2ccc(NC(=O)Nc3c(C(C)C)cccc3C(C)C)cc2)cc1`, with 30.1%; and `CCCCNC(=O)Nc1ccc(-c2nonc2-c2ccc(Cl)cc2)cc1`, with 23%; and `Cc1ccc(-c2nc(NC(=O)Nc3ccc(F)cc3F)sc2-c2ccc(NS(C)(=O)=O)cc2)cc1`, with 2.17%. The same measure for `CC(=O)Nc1ccc(-c2sc(NC(=O)Nc3ccc(F)cc3F)nc2-c2ccc(C)cc2)cc1`: 3.06%; for `Cc1ccc(-c2nc(C)sc2-c2ccc(NC(=O)NCCN3CCOCC3)cc2)cc1`: 19%; for `CCCCNC(=O)Nc1nc(-c2ccccc2)c(-c2ccccc2)s1`: 2.56%. The same measure for `CCCCNC(=O)Nc1ccc(-c2nonc2-c2ccc(C)cc2)cc1`: 2.83%; for `CCc1cccc(CC)c1NC(=O)Nc1nc(-c2ccc(F)cc2)c(-c2ccc(Cl)cc2)s1`: 1.58%. On to `CC(=O)Nc1ccc(-c2sc(NC(=O)Nc3ccc(F)cc3F)nc2-c2ccc(F)cc2)cc1`, for which the inhibition was 23.3%. Then `CCCCNC(=O)Nc1nc(-c2ccc(C)cc2)c(-c2ccc(NC(C)=O)cc2)s1`, with 5.23%; and `O=C(Nc1nc(-c2ccc(Cl)cc2)c(-c2ccc([N+](=O)[O-])cc2)s1)Nc1ccc(F)cc1F`, with 3.28%. Turning to `Cc1ccc(-c2nc(C)sc2-c2ccc(NC(=O)Nc3ccc(F)cc3F)cc2)cc1`, the inhibition was determined as 26.6%.

Turning to `CCCCNC(=O)Nc1nc(-c2ccc(Cl)cc2)c(-c2ccc([N+](=O)[O-])cc2)s1`, the inhibition was determined as 3.02%.

Usually inhibition stands for how much of the control response was suppressed.

(Values after ChEMBL document CHEMBL4049391, “Vicinal diaryl azole-based urea derivatives as potential cholesterol lowering agents acting through inhibition of SOAT enzymes” (Eur J Med Chem, 2017).)
